Test results: paper PMC4467398, “Preclinical antitumor activity of ST7612AA1: a new oral thiol-based histone deacetylase (HDAC) inhibitor” (Oncotarget, 2014)

System: DOHH2 and TMD8 DLBCL cells
Assay: Gene expression profiling (HumanHT-12 v4 BeadChip, limma), ST7612AA1 300 nM 8 hrs vs DMSO
Type: cell-based, human
Conditions: 300 nM 8 hrs vs DMSO

CC(=O)SCCCCC[C@H](NC(=O)[C@H]1CCC(=O)N1)C(=O)Nc1ccccc1 [ST7612AA1]
log ratio LOC285359 (ILMN_1675878): 6.44E-01
log ratio LOC388588 (probe ILMN_1749834): 7.07E-01
log ratio LOC389816 (ILMN_2249018): 6.55E-01
log ratio LOC643384 (ILMN_3219806): -1.06E+00
log ratio LOC644563 (ILMN_3207122): -1.31E+00
log ratio LOC644988 (ILMN_3201485): 6.07E-01
log ratio LOC646463 (ILMN_1721651): 6.71E-01
log ratio LOC646786 (ILMN_1654915): 6.50E-01
log ratio LOC646817 (ILMN_1702585): -1.11E+00
log ratio LOC647784 (ILMN_1674710): 6.05E-01
log ratio LOC650215 (ILMN_1743711): -8.77E-01
log ratio LOC653566 (ILMN_1780382): -6.21E-01
log ratio LOC654191 (probe ILMN_1762308): 7.84E-01
log ratio LOC727935 (probe ILMN_1691616): 7.14E-01
log ratio LOC728014 (probe ILMN_1711699): 8.58E-01
log ratio LOC728492 (ILMN_1655444): -8.05E-01
log ratio LOC728602 (ILMN_3305993): 6.70E-01
log ratio LOC728650 (ILMN_3234615): -8.83E-01
log ratio LOC729495 (probe ILMN_3297510): 7.45E-01
log ratio LOC730101 (probe ILMN_3305735): 7.41E-01
log ratio LOC730415 (probe ILMN_3228688): 6.95E-01
log ratio LOC731049 (ILMN_1808591): 6.61E-01
log ratio LOC731314 (probe ILMN_1785756): 8.31E-01
log ratio LOC100128163 (probe ILMN_3182893): 7.83E-01
log ratio LOC100130919 (ILMN_3176090): -8.14E-01
log ratio LOC100131727 (probe ILMN_3292990): 7.73E-01
log ratio LOC100131735 (ILMN_3208233): -5.90E-01
log ratio LOC100132715 (ILMN_3211935): -5.93E-01
log ratio LOC100133583 (probe ILMN_3214389): 8.94E-01
log ratio LOC100133678 (probe ILMN_3249667): 8.11E-01
log ratio LOC100134361 (probe ILMN_3241081): 8.59E-01
log ratio LPCAT3 (ILMN_1805225): 6.30E-01
log ratio LRCH4 (probe ILMN_2157075): 8.54E-01
log ratio LRP8 (ILMN_1677765): -8.68E-01
log ratio LRRC1 (probe ILMN_1755383): 7.83E-01
log ratio LRRC16 (ILMN_1736730): 5.94E-01
log ratio LRRC32 (ILMN_2129161): 6.30E-01
log ratio LRRC33 (ILMN_1746148): -1.42E+00
log ratio LRRFIP2 (ILMN_1707156): 6.31E-01
log ratio LRRK1 (ILMN_1696004): -8.42E-01
log ratio LTA4H (probe ILMN_1690342): 7.50E-01
log ratio LUZP1 (ILMN_1714159): 6.25E-01
log ratio LYAR (ILMN_1764362): -8.62E-01
log ratio LYAR (ILMN_2221564): -9.24E-01
log ratio LYRM5 (probe ILMN_1744534): 7.90E-01
log ratio LYRM7 (ILMN_3238623): 6.34E-01
log ratio LYSMD4 (probe ILMN_2159859): 6.95E-01
log ratio MAD2L2 (ILMN_1669550): 6.43E-01
log ratio MAK16 (ILMN_1777139): -7.86E-01
log ratio MAP1LC3B (probe ILMN_1703244): 7.73E-01
log ratio MAP1S (ILMN_1796336): 6.11E-01
log ratio MAP2K1 (probe ILMN_1694240): 7.15E-01
log ratio MAPKAPK2 (ILMN_1774844): 6.77E-01
log ratio MAPRE2 (probe ILMN_1695276): 7.72E-01
log ratio MARCKSL1 (probe ILMN_1714433): 8.47E-01
log ratio MAST3 (probe ILMN_1738749): 7.21E-01
log ratio MCL1 (ILMN_1756806): 6.49E-01
log ratio MCRS1 (ILMN_1784227): -9.30E-01
log ratio MED24 (ILMN_2388272): -6.00E-01
log ratio MEPCE (ILMN_2180827): -8.77E-01
log ratio METTL1 (ILMN_1815190): -9.82E-01
log ratio METTL1 (ILMN_3306997): -9.97E-01
log ratio MEX3C (ILMN_1658182): -6.16E-01
log ratio MGC3731 (ILMN_1759991): -9.43E-01
log ratio MGEA5 (ILMN_1686750): 6.73E-01
log ratio MINA (ILMN_1746025): -5.93E-01
log ratio MNS1 (probe ILMN_2157240): 7.07E-01
log ratio MPDU1 (ILMN_1655654): -1.02E+00
log ratio MPDU1 (ILMN_2070815): -8.19E-01
log ratio MRLC2 (ILMN_1654016): 5.90E-01
log ratio MRPL3 (ILMN_1713143): -8.76E-01
log ratio MRPL20 (ILMN_2189424): -8.46E-01
log ratio MRPL24 (ILMN_2398995): -6.00E-01
log ratio MRPL35 (ILMN_2341952): -5.96E-01
log ratio MRPL54 (ILMN_1658486): -9.87E-01
log ratio MRPS26 (ILMN_1676026): -7.88E-01
log ratio MRPS30 (ILMN_1726743): -5.98E-01
log ratio MRPS35 (ILMN_2189993): -8.24E-01
log ratio MRTO4 (ILMN_1689800): -9.19E-01
log ratio MTE (probe ILMN_2136089): 8.56E-01
log ratio MTHFD1L (ILMN_1772521): -9.66E-01
log ratio MTHFS (ILMN_1772302): -1.28E+00
log ratio MTP18 (ILMN_2355665): -9.91E-01
log ratio MTX3 (ILMN_1679071): -6.10E-01
log ratio MYB (ILMN_1711894): -9.88E-01
log ratio MYBL1 (probe ILMN_3241046): 7.69E-01
log ratio MYD88 (ILMN_1738523): -1.17E+00
log ratio MYH9 (ILMN_1722872): 6.24E-01
log ratio MYH10 (ILMN_1815154): 5.97E-01
log ratio N6AMT2 (ILMN_1730260): -9.90E-01
log ratio NARG1 (ILMN_1669142): -6.10E-01
log ratio NBN (ILMN_1734833): -9.40E-01
log ratio NECAP2 (ILMN_1749011): 6.12E-01
log ratio NEK2 (ILMN_2051373): 6.21E-01
log ratio NGDN (ILMN_1690049): -6.03E-01
log ratio NIP7 (ILMN_1704305): -1.05E+00
log ratio NLGN2 (ILMN_1764158): 6.16E-01
log ratio NMI (ILMN_1739541): -9.86E-01
log ratio NOL6 (ILMN_2320250): -8.75E-01
log ratio NOL11 (ILMN_1688971): -7.88E-01
log ratio NOP16 (ILMN_3247723): -1.13E+00
log ratio NOSIP (probe ILMN_1759436): 7.06E-01
log ratio NPC2 (probe ILMN_1716678): 8.44E-01
log ratio NPHP3 (ILMN_1730539): 6.73E-01
log ratio NPL (probe ILMN_1782070): 7.76E-01
log ratio NPL (probe ILMN_2149494): 8.88E-01
log ratio NQO2 (probe ILMN_1712918): 8.69E-01
log ratio NSMAF (ILMN_1716596): -1.37E+00
log ratio NUB1 (probe ILMN_1665291): 7.20E-01
log ratio NUCKS1 (ILMN_3251404): -5.98E-01
log ratio NUDT6 (ILMN_2366972): 5.92E-01
log ratio NUDT15 (ILMN_1751403): -5.98E-01
log ratio NUMB (probe ILMN_2331266): 7.27E-01
log ratio NUP188 (ILMN_1715416): -5.95E-01
log ratio NXF1 (probe ILMN_1705783): 8.80E-01
log ratio NXF1 (probe ILMN_2358652): 7.18E-01
log ratio NXT1 (ILMN_1760280): -8.51E-01
log ratio OAS2 (ILMN_2248970): -1.29E+00
log ratio OSBPL2 (ILMN_1656482): 6.07E-01
log ratio P704P (probe ILMN_1793950): 6.85E-01
log ratio PAG1 (ILMN_2055156): 6.63E-01
log ratio PAQR3 (ILMN_1716071): 6.81E-01
log ratio PAQR8 (probe ILMN_1694589): 7.20E-01
log ratio PCMT1 (ILMN_1671621): 6.27E-01
log ratio PCTP (ILMN_1802257): 6.55E-01
log ratio PCYOX1 (probe ILMN_1679725): 7.89E-01
log ratio PDCD2 (ILMN_1758915): -8.70E-01
log ratio PDXK (probe ILMN_1672504): 8.94E-01
log ratio PECI (probe ILMN_2384536): 8.25E-01
log ratio PEMT (ILMN_1745806): -5.93E-01
log ratio PEX16 (probe ILMN_1745655): 7.84E-01
log ratio PFKFB3 (ILMN_2186061): 6.71E-01
log ratio PHF5A (ILMN_2112402): -8.44E-01
log ratio PHF15 (ILMN_1795285): -8.13E-01
log ratio PHF19 (ILMN_1713249): -1.52E+00
log ratio PHF19 (ILMN_1745420): -1.01E+00
log ratio PIGW (ILMN_1743397): -1.03E+00
log ratio PIM2 (probe ILMN_1748283): 7.43E-01
log ratio PITX1 (ILMN_1674386): -8.58E-01
log ratio PKIA (ILMN_1762262): 6.12E-01
log ratio PKIA (probe ILMN_2337974): 7.37E-01
log ratio PLD3 (probe ILMN_1666976): 8.81E-01
log ratio PLD6 (ILMN_1731518): -1.18E+00
log ratio PLD6 (ILMN_3240586): -1.84E+00
log ratio PLIN2 (ILMN_2138765): 5.92E-01
log ratio PLS1 (ILMN_1759206): 6.43E-01
log ratio PLXNA3 (ILMN_1719972): 6.52E-01
log ratio PMAIP1 (probe ILMN_2098446): 8.50E-01
log ratio PNKD (probe ILMN_1774604): 7.25E-01
